# Assay results as given in patent US12532889B2, “Herbicidal compositions comprising glufosinate” (BASF SE, priority 2023, dated 2026).
# Where “and” joins values, the source holds several entries; their conditions need not be identical. Equal entries are not always repeated.
# Assays:
# Experiment in all cases: Post-emergence application in field trials (Example A)
# Type in all cases: in vivo
# CYPIR (Cyperus iria) = conditions: Table 2.1, CYPIR growth stage 13-14, height 3-5 cm, 14 DAT, water 300 l/ha
# How it was run: (§1)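 Post-emergence field spray, natural or sown weeds; solo and tank-mix treatments. Visual damage 0% (none) to 100% (complete kill) vs untreated control at indicated DAT. Colby E = expected additive effect; observed above E = synergy.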
# AVEFA (Avena fatua) = conditions: Table 3.1; AVEFA growth stage 22-24, height 18-29 cm; A-1 12.5, B-2 500 g ai/ha; 28 DAT; water 100 l/ha
# How it was run: as §1
# [1] = test system: HORVW (Hordeum vulgare (winter barley))
# How it was run: as §1
# CNDSS (Conyza sp.) = conditions: Table 1.5; CNDSS growth stage 26-59, height 15-55 cm; A-1 50, B-2 600 g ai/ha; 14 DAT; water 200 l/ha
# How it was run: as §1
# AVESG (Avena strigosa) = conditions: Table 1.6; AVESG growth stage 11-21, height 5-10 cm; A-1 25, B-2 400 g ai/ha; 14 DAT; water 200 l/ha
# How it was run: as §1
# [2] = test system: PASSC (Paspalum scrobiculatum); conditions: Table 5.2, A-1 25, B-6 252 g ai/ha, 21 DAT, water 450 l/ha
# How it was run: as §1
# ZEAMX (Zea mays) = test system: ZEAMX (Zea mays)
# How it was run: as §1
# [3] = test system: BRAPL (Brachiaria plantaginea); conditions: BRAPL growth stage 24, A-1 50, B-2 400 g ai/ha, water 200 l/ha
# How it was run: as §1
# GALAP (Galium aparine) = conditions: Table 3.1; GALAP growth stage 11-16, height 2-20 cm; A-1 18, B-2 500 g ai/ha; 28 DAT; water 100 l/ha
# How it was run: as §1
# GLXMA (Glycine max) = conditions: 21 DAT; A-1 12.5 g ai/ha; growth stage 13; height 5-10 cm
# How it was run: as §1
# IPOTR (Ipomoea triloba) = conditions: 21 DAT
# How it was run: as §1
# [4] = test system: DIGSA (Digitaria sanguinalis); conditions: for % Herbicidal activity: A-1 12.5 g ai/ha, growth stage 22
# How it was run: as §1
# BIDPI (Bidens pilosa) = conditions: Table 1.14; BIDPI height 20-45 cm; A-1 50, B-2 400 g ai/ha; 21 DAT; water 100 l/ha
# How it was run: as §1
# [5] = test system: COMDI (Commelina diffusa); conditions: Table 5.3; COMDI growth stage 76-77; A-1 25, B-6 252 g ai/ha; 28 DAT; water 300 l/ha
# How it was run: as §1
# [6] = test system: ECHCG (Echinocloa crus-galli)
# How it was run: as §1
# [7] = test system: CYPES (Cyperus esculentus); conditions: 21 DAT, water 140 l/ha
# How it was run: as §1
# [8] = test system: LOLMU (Lolium multiflorum)
# How it was run: as §1
# [9] = test system: AMAPA (Amaranthus palmeri); conditions: Table 1.27, AMAPA height 30 cm, 21 DAT, water 200 l/ha
# How it was run: as §1
# [10] = 7 DAT, A-1 12.5 g ai/ha, growth stage 23-29, height 20-25 cm
# [11] = 7 DAT, A-1 18 g ai/ha, growth stage 23-29, height 20-25 cm
# [12] = 21 DAT, A-1 12.5 g ai/ha, growth stage 23-29, height 20-25 cm
# [13] = 21 DAT, A-1 18 g ai/ha, growth stage 23-29, height 20-25 cm
# [14] = 42 DAT, A-1 18 g ai/ha, growth stage 15-16, height 27-33 cm
# [15] = 21 DAT, A-1 12.5 g ai/ha, growth stage 23-30, height 15-20 cm
# [16] = 21 DAT, A-1 18 g ai/ha, growth stage 23-30, height 15-20 cm
smiles,measurement,setting,value
"CCOC(=O)COc1ccccc1Oc1nc(-n2c(=O)cc(C(F)(F)F)n(C)c2=O)c(F)cc1Cl [A-1, ethyl 2-[2-[[3-chloro-5-fluoro-6-[3-methyl-2,6-dioxo-4-(trifluoromethyl)pyrimidin-1-yl]-2-pyridyl]oxy]phenoxy]acetate]",% herbicidal activity,"CYPIR (Cyperus iria); A-1 12.5, B-2 500 g ai/ha",30%
same,% herbicidal activity,"CYPIR (Cyperus iria); A-1 25, B-2 500 g ai/ha",60%
same,% herbicidal activity,AVEFA (Avena fatua),70%
same,% Herbicidal activity,[1]; [10],60%
same,% herbicidal activity,[1]; [10],60%
same,% Herbicidal activity,[1]; [11],70%
same,% herbicidal activity,[1]; [11],75%
same,% Herbicidal activity,[1]; [12],90% and 60%
same,% herbicidal activity,[1]; [12],70% and 60%
same,% Herbicidal activity,[1]; [13],70%
same,% herbicidal activity,[1]; [13],70% and 75%
same,% herbicidal activity,"[1]; Table 6.1, HORVW growth stage 23-29, height 20-25 cm, A-1 12.5, B-6 150 g ai/ha, 7 DAT, 200 l/ha water",60%
same,% herbicidal activity,"[1]; Table 6.1, HORVW growth stage 23-29, height 20-25 cm, A-1 12.5, B-6 252 g ai/ha, 7 DAT, 200 l/ha water",60%
same,% herbicidal activity,"[1]; Table 6.1, HORVW growth stage 23-29, height 20-25 cm, A-1 18, B-6 150 g ai/ha, 7 DAT, 200 l/ha water",70%
same,% herbicidal activity,"[1]; Table 6.1, HORVW growth stage 23-29, height 20-25 cm, A-1 18, B-6 252 g ai/ha, 7 DAT, 200 l/ha water",70%
same,% herbicidal activity,CNDSS (Conyza sp.),72%
same,% herbicidal activity,AVESG (Avena strigosa),78%
same,% herbicidal activity,[2],22%
same,% herbicidal activity,"ZEAMX (Zea mays); 7 DAT, A-1 12.5 g ai/ha, growth stage 15-16, height 50-60 cm",80%
same,% Herbicidal activity,"ZEAMX (Zea mays); 21 DAT, A-1 12.5 g ai/ha, growth stage 15-16, height 27-33 cm",35%
same,% herbicidal activity,"ZEAMX (Zea mays); 21 DAT, A-1 12.5 g ai/ha, growth stage 15-16, height 50-60 cm",70%
same,% herbicidal activity,"ZEAMX (Zea mays); 28 DAT, A-1 12.5 g ai/ha, growth stage 15-16, height 50-60 cm",50%
same,% Herbicidal activity,"ZEAMX (Zea mays); 42 DAT, A-1 12.5 g ai/ha, growth stage 15-16, height 27-33 cm",20%
same,% Herbicidal activity,ZEAMX (Zea mays); [14],30%
same,% herbicidal activity,ZEAMX (Zea mays); [14],20%
same,% herbicidal activity,"ZEAMX (Zea mays); Table 1.12, ZEAMX volunteer corn, A-1 50, B-2 400 g ai/ha, 21 DAT, water 100 l/ha",83%
same,% herbicidal activity,"ZEAMX (Zea mays); Table 6.1, ZEAMX growth stage 15-16, height 50-60 cm, A-1 18, B-6 252 g ai/ha, 7 DAT, 200 l/ha water",85%
same,% herbicidal activity,"[3]; Table 1.18, 21 DAT",42%
same,% herbicidal activity,"[3]; Table 1.4, 14 DAT",85%
same,% herbicidal activity,GALAP (Galium aparine),79%
same,% herbicidal activity,GLXMA (Glycine max),90%
same,% herbicidal activity,"IPOTR (Ipomoea triloba); Table 1.11, A-1 25, B-2 400 g ai/ha, water 100 l/ha",85%
same,% herbicidal activity,"IPOTR (Ipomoea triloba); Table 1.16, A-1 25, B-2 400 g ai/ha, water 200 l/ha",82%
same,% Herbicidal activity,"[4]; 7 DAT, height 10-15 cm",75%
same,% Herbicidal activity,"[4]; 21 DAT, height 10-15 cm",70%
same,% herbicidal activity,"[4]; 21 DAT, A-1 18 g ai/ha, growth stage 21-22, height 10-15 cm",35%
same,% Herbicidal activity,"[4]; 41 DAT, height 10-15 cm",55%
same,% Herbicidal activity,"[4]; 42 DAT, height 10-15 cm",55%
same,% herbicidal activity,"[4]; Table 4.1, DIGSA height 2-8 cm, A-1 12.5, B-2 655 g ai/ha, 21 DAT, water 140 l/ha",27%
same,% herbicidal activity,"[4]; Table 4.1, DIGSA height 2-8 cm, A-1 25, B-2 655 g ai/ha, 21 DAT, water 140 l/ha",28%
same,% herbicidal activity,"[4]; Table 4.1, DIGSA height 2-8 cm, A-1 50, B-2 655 g ai/ha, 21 DAT, water 140 l/ha",55%
same,% herbicidal activity,"[4]; Table 6.1, DIGSA growth stage 21-22, height 10-15 cm, A-1 18, B-6 252 g ai/ha, 7 DAT, 200 l/ha water",40%
same,% herbicidal activity,BIDPI (Bidens pilosa),74%
same,% herbicidal activity,[5],60%
same,% herbicidal activity,"[6]; 7 DAT, A-1 12.5 g ai/ha, growth stage 23-30, height 15-20 cm",20%
same,% herbicidal activity,"[6]; 7 DAT, A-1 18 g ai/ha, growth stage 23-30, height 15-20 cm",40%
same,% Herbicidal activity,[6]; [15],30% and 20%
same,% herbicidal activity,[6]; [15],20% and 30%
same,% Herbicidal activity,[6]; [16],30%
same,% herbicidal activity,[6]; [16],30% and 40%
same,% Herbicidal activity,"[6]; 28 DAT, A-1 12.5 g ai/ha, growth stage 23-30, height 15-20 cm",20%
same,% Herbicidal activity,"[6]; 28 DAT, A-1 18 g ai/ha, growth stage 23-30, height 15-20 cm",30%
same,% herbicidal activity,"[6]; Table 6.1, ECHCG growth stage 23-30, height 15-20 cm, A-1 12.5, B-6 150 g ai/ha, 7 DAT, 200 l/ha water",20%
same,% herbicidal activity,"[6]; Table 6.1, ECHCG growth stage 23-30, height 15-20 cm, A-1 12.5, B-6 252 g ai/ha, 7 DAT, 200 l/ha water",20%
same,% herbicidal activity,"[6]; Table 6.1, ECHCG growth stage 23-30, height 15-20 cm, A-1 18, B-6 150 g ai/ha, 7 DAT, 200 l/ha water",30%
same,% herbicidal activity,"[6]; Table 6.1, ECHCG growth stage 23-30, height 15-20 cm, A-1 18, B-6 252 g ai/ha, 7 DAT, 200 l/ha water",40%
same,% herbicidal activity,"[7]; Table 4.2, A-1 25, B-2 655 g ai/ha",22%
same,% herbicidal activity,"[7]; Table 4.2, A-1 50, B-2 655 g ai/ha",42%
same,% herbicidal activity,"[8]; 7 DAT, A-1 12.5 g ai/ha, growth stage 22-25, height 20-25 cm",70%
same,% herbicidal activity,"[8]; 21 DAT, A-1 12.5 g ai/ha, growth stage 22-25, height 20-25 cm",70%
same,% herbicidal activity,"[8]; Table 1.28, LOLMU growth stage 11-23, height 5-10 cm, A-1 25, B-2 400 g ai/ha, 28 DAT, water 200 l/ha",43%
same,% herbicidal activity,"[8]; Table 6.1, LOLMU growth stage 22-25, height 20-25 cm, A-1 12.5, B-6 252 g ai/ha, 7 DAT, 200 l/ha water",40%
same,% herbicidal activity,"[8]; Table 6.1, LOLMU growth stage 22-25, height 20-25 cm, A-1 18, B-6 252 g ai/ha, 7 DAT, 200 l/ha water",50%
same,% herbicidal activity,"[9]; A-1 12.5, B-2 400 g ai/ha",70%
same,% herbicidal activity,"[9]; A-1 25, B-2 400 g ai/ha",85%
